Measurements as given in paper PMC6510487 (Chemosensors (Basel, Switzerland), 2018).
Ends that are not written are not given here.

Key:
human SIRPalpha [1] = test: Fluorescence response of CD47 mimetic probe upon hSIRPalpha binding; details: 150 μM probe, 50 μM human SIRPalpha
human SIRPalpha [2] = test: Microscale thermophoresis binding of CD47 mimetic probe to hSIRPalpha; details: 150 μM probe, 50 μM human SIRPalpha

fluorescence enhancement upon target binding to hSIRPalpha (human SIRPalpha [1]): did not exhibit fluorescence enhancement | binding to hSIRPalpha by MST (human SIRPalpha [2]): could bind to hSIRPalpha
Sequence: EVTELTREGE [CD47 mimetic probe]
